The record followed here is publication PMC9953885 (Biosensors, 2023).

For the assay, the target named is T1, human pancreatic lipase (hPL) (Homo sapiens, UniProt P16233).
T1 construct: gene PNLIP
T1 sequence (P16233 17-465): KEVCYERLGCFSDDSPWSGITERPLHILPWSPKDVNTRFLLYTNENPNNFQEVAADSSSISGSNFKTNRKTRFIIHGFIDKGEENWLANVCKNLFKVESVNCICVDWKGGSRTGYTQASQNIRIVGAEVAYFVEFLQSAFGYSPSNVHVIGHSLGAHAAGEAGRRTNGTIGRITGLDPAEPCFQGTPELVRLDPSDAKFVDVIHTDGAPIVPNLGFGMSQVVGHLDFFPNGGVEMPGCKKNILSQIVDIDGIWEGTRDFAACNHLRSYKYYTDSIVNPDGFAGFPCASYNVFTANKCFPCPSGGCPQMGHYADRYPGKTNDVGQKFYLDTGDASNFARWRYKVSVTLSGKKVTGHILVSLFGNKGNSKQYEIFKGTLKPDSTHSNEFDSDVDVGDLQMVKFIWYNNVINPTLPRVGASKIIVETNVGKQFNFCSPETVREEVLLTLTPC
To be noted: 10 µM; inhibitor. The procedure: First, we evaluated the inhibitory effect of 94 natural products derived from herbs and 94 drugs on hPL. In our high-throughput screening system, 1 ug/mL hPL was used, and the final concentration of the 94 natural products derived from herbs and 94 drugs used was 10 μM. Other conditions were the same as in the selectivity experiments. […] RLE was incubated with hPL and various enzymes, such as hCES1A, hCES2A, CA, AchE, BchE, 5-HKE, lysozyme, trypsin, thrombin, α-CT, FAP, PREP, pepsin, α-amylase, plasmin, notum and hSA, in a 100 µL incubation mixture consisting of Tris-HCl (pH = 7.4, 25 mM), NaCl (150 mM), CaCl2 (1 mM) and porcine bile salt (0.1 mg/mL) at a concentration of 1.5 µg/mL. The reaction was initiated by adding RLE to the preincubated enzyme mixture at 37 °C, and metabolite formation was determined by measuring the fluorescence intensity of resorufin at 590 nm. In addition, several amino acids (IIe, His, Trp, Val, Leu, Tyr, Ala, Thr, Pro, Asp, Lys, Met, Cys, Ser, Phe, Gly, Glu and Gln), ions (Ni^2+, Ca^2+, Na^+, K^+, Cu^2+, Zn^2+, Mg^2+, NH4^+, Cu^+, Fe^2+ and CN^-) and GSH were measured. The concentration of these interfering factors was 5 μM. […] In this case, a visual high-throughput assay was established to screen hPL inhibitors, using RLE as a fluorogenic substrate in a 96-well microplate.

SMILES strings stand for the structures. Where a name gives a salt, the structure may show the parent alone.

As to `COc1ccc2cc([C@H](C)C(=O)O)ccc2c1` [Naproxen], the “% of control remaining” value is given as 116.02%. The figure for `COc1cc([C@@H]2c3cc4c(cc3[C@@H](O[C@@H]3O[C@@H]5CO[C@@H](C)O[C@H]5[C@H](O)[C@H]3O)[C@H]3COC(=O)[C@H]23)OCO4)cc(OC)c1O` [Etoposide] is 65.05%; for `COc1c(/C=C/C(=O)c2ccc(O)cc2)ccc(O)c1O` [Licochalcone B] it is 58.04%. The figure for `Cc1ccc(-c2cc(C(F)(F)F)nn2-c2ccc(S(N)(=O)=O)cc2)cc1` [Celecoxib] is 90.67%; for `Cc1c(O)c(C)c2c(c1O)C(=O)[C@H](Cc1ccc3c(c1)OCO3)CO2` [Methylophiopogonanone A] it is 80.44%. The figure for `COc1c(O)c(O)cc2oc(-c3ccc(O)c(O)c3)c(O)c(=O)c12` [g2, 2-(3,4-Dihydroxyphenyl)-3,6,7-trihydroxy-5-methoxy-4H-1-benzopyran-4-one] is 59.87%.

For `N=C(N)NC(=O)c1nc(Cl)c(N)nc1N` [Amiloride hydrochloride], the “% of control remaining” value is listed as 109.84%. For `COC(=O)C[C@](O)(CCCC(C)(C)O)C(=O)O[C@@H]1C(OC)=C[C@]23CCCN2CCc2cc4c(cc2[C@H]13)OCO4` [Homoharringtonine], the “% of control remaining” value came out at 74.77%. The figure for `CC(C)(O/N=C(\C(=O)N[C@@H]1C(=O)N2C(C(=O)[O-])=C(C[n+]3ccccc3)CS[C@H]12)c1csc(N)n1)C(=O)O` [CeftazidiMe] is 118.41%; for `CC(C)Cc1ccc(C(C)C(=O)O)cc1` (stereo not shown) [Ibuprofen] it is 103.68%; for `O=C(O)CCc1nc(-c2ccccc2)c(-c2ccccc2)o1` [Oxaprozin] it is 81.83%. As to `CC[C@H]1CN2CC[C@@]3(C(=O)Nc4ccccc43)[C@@H]2C[C@@H]1/C(=C\OC)C(=O)OC` [Isorhynchophylline], the “% of control remaining” value came to 87.99%. The result for `Cc1nnc2n1-c1ccc(Cl)cc1C(c1ccccc1)=NC2` [Alprazolam] reads 68.13%; that for `O=C1c2c(O)cc(O)cc2O[C@H](c2ccc(O)c(O)c2)[C@H]1O` [TGaxifolin], 97.17%; that for `C[C@H]1CC[C@@]2(OC1)O[C@H]1C[C@H]3[C@@H]4CC[C@@H]5C[C@@H](O[C@@H]6O[C@H](CO)[C@H](O)[C@H](O)[C@H]6O[C@@H]6O[C@H](CO)[C@@H](O)[C@H](O)[C@H]6O)CC[C@]5(C)[C@H]4CC[C@]3(C)[C@H]1[C@@H]2C` [Timosaponin A-III], 95.12%. In the case of `CC#CCn1c(N2CCC[C@@H](N)C2)nc2c1c(=O)n(Cc1nc(C)c3ccccc3n1)c(=O)n2C` [Linagliptin], the “% of control remaining” value worked out at 108.93%. The result for `COc1cc(-c2coc3cc4c(c(OC)c3c2=O)OCO4)cc(OC)c1OC` [Irisflorentin] reads 66.38%.

Consider `CCC/C=C1\OC(=O)C2=C1CCC=C2` [Z-Ligustilide], for which the “% of control remaining” value turned out to be 83.60%. Consider `O=c1c(O[C@@H]2O[C@H](CO)[C@@H](O)[C@H](O)[C@H]2O)c(-c2ccc(O)cc2)oc2cc(O)cc(O)c12` [Astragalin], for which the “% of control remaining” value is 107.88%. The result for `CN/C(=N\CCSCc1nc[nH]c1C)NC#N` [Cimetidine] reads 111.11%; that for `NC(=O)N1c2ccccc2C=Cc2ccccc21` [Carbamazepine], 104.15%; that for `COc1cc2c3cc1Oc1c(OC)c(OC)cc4c1[C@@H](Cc1cccc(c1)Oc1ccc(c(O)c1)C[C@@H]3N(C)CC2)N(C)CC4` [Berbamine Hydrochloride], 69.86%. The result for `CC(=O)O[C@@H]1C[C@H](O)[C@@]23CO[C@@H](O)[C@]1(C)[C@@H]2C[C@@H](O)[C@]1(C)[C@@H]3C(=O)[C@H](OC(C)=O)[C@@]2(C)[C@H](c3ccoc3)C[C@H]3O[C@]321` [Toosendanin] reads 72.37%; that for `CCCN(CCC)S(=O)(=O)c1ccc(C(=O)O)cc1` [Probenecid], 93.75%. The result for `CC(C)OC(=O)OCOP(=O)(CO[C@H](C)Cn1cnc2c(N)ncnc21)OCOC(=O)OC(C)C` [Tenofovir disoproxil] reads 91.86%; that for `C[C@@H]1C(=O)O[C@H]2[C@H](O)[C@@]34O[C@@H]5OC(=O)[C@H](O)[C@@]56[C@H](C(C)(C)C)[C@H](O)C(OC3=O)[C@]64[C@@]12O` (stereo partly shown) [Ginkgolide C], 106.22%; that for `C[C@]12CCC(=O)C=C1CC[C@@H]1[C@@H]2[C@@H](O)C[C@@]2(C)[C@H]1CC[C@]2(O)C(=O)CO` [Hydrocortisone], 56.27%. On to `CC(=O)Nc1ccc(OC(=O)c2ccccc2OC(C)=O)cc1` [Benorilate], for which the “% of control remaining” value came to 76.99%. The figure for `C=C[C@H]1CN2CC[C@H]1C[C@@H]2[C@@H](O)c1ccnc2ccc(OC)cc12` [Quinidine] is 100.77%. The result for `Nc1ccccc1NC(=O)c1ccc(CNC(=O)OCc2cccnc2)cc1` [Entinostat] reads 102.02%; that for `COc1ccc2c(c1)c(CC(=O)O)c(C)n2C(=O)c1ccc(Cl)cc1` [Indometacin], 102.95%.

Turning to `CCOC(=O)C1=C(C)NC(C)=C(C(=O)OC)C1c1cccc(Cl)c1Cl` (stereo not shown) [Felodipine], the “% of control remaining” value is listed as 93.02%. The result for `CCOC(=O)C1=C(COCCN)NC(C)=C(C(=O)OC)C1c1ccccc1Cl` (stereo not shown) [Amlodipine] reads 85.85%. The result for `Cc1ncc([N+](=O)[O-])n1CCO` [Metronidazole] reads 78.49%; that for `O=C(O)Cc1ccccc1Nc1c(Cl)cccc1Cl` [diclofenzc], 97.62%; that for `O=C1C=CC[C@@H]2[C@H]3CCC[N+]4([O-])CCC[C@@H](CN12)[C@@H]34` (stereo partly shown) [Oxysophocarpine], 98.58%. On to `CC1(C)[C@H](C(=O)O)N2C(=O)C[C@H]2S1(=O)=O` [Sulbactam sodium], for which the “% of control remaining” value came to 88.89%. The figure for `COc1cc(O)c2c(=O)cc(-c3ccc(OC)c(-c4c(O)cc(O)c5c(=O)cc(-c6ccc(O)cc6)oc45)c3)oc2c1` [Ginkgetin] is 39.42%. The result for `CC(C)=CCOc1c2ccoc2cc2oc(=O)ccc12` [Isoimperatorin] reads 72.90%.

Consider `COc1ccc(-c2coc3cc(O)ccc3c2=O)cc1` [Formononetin], for which the “% of control remaining” value stood at 104.25%. Regarding `O=C(O)/C=C/c1ccc(O)c(O)c1` [Caffeic acid], the “% of control remaining” value amounted to 71.45%. The figure for `O=c1c(O)c(-c2ccc(O)cc2)oc2c(O)c(O)cc(O)c12` [Herbacetin] is 83.59%.

`O=c1c(O)c(-c2ccc(O)cc2O)oc2cc(O)cc(O)c12` [Morin hydrate]: the “% of control remaining” value worked out at 96.10%. The figure for `CC1(C)OC(=O)C=C[C@]2(C)[C@H]3CC[C@@]4(C)[C@H](c5ccoc5)OC(=O)[C@H]5O[C@]54[C@]3(C)C(=O)C[C@@H]12` [Obacunon] is 79.60%; for `C[C@@H]1O[C@@H](O[C@H]2[C@H](OC(=O)[C@]34CCC(C)(C)C[C@H]3C3=CC[C@@H]5[C@@]6(C)C[C@H](O)[C@H](O[C@@H]7O[C@H](CO)[C@@H](O)[C@H](O)[C@H]7O)C(CO)(CO)[C@@H]6CC[C@@]5(C)[C@]3(C)C[C@H]4O)OC[C@H](O)[C@@H]2O)[C@H](O)[C@H](O)[C@H]1O[C@@H]1OC[C@@H](O)[C@H](O[C@@H]2OC[C@](O)(CO)[C@H]2O)[C@H]1O` [Platycodin D] it is 89.14%. The result for `NS(=O)(=O)c1cc2c(cc1Cl)NCNS2(=O)=O` [Hydrochlorothiazide] reads 99.42%; that for `COc1ccc2cc3[n+](cc2c1O)CCc1cc2c(cc1-3)OCO2` [Berberrubine], 86.09%. The figure for `C=C1C(=O)O[C@@H]2C[C@@]3(C)CCC[C@H](C)C3=C[C@H]12` [Alantolactone] is 61.11%. Take `O=C1c2c(O)cc(O)cc2O[C@H](c2cc(O)c(O)c(O)c2)[C@H]1O` [Dihydromyricetin]: the “% of control remaining” value amounted to 95.62%. The figure for `O=c1cc(-c2ccc(O)cc2)oc2cc(O)cc(O)c12` [Apigenin] is 102.46%; for `Cc1ncc2n1-c1ccc(Cl)cc1C(c1ccccc1F)=NC2` [Midazolam] it is 96.73%. The figure for `O=C(O)c1cc(-c2ccc(F)cc2F)ccc1O` [Diflunisal] is 118.03%.
